Target: T1, LFA-1 (CD18/CD11a) binding to ICAM-1 (Homo sapiens, UniProt P05107+P20701)
T1 construct: followed by purified LFA-1 (in buffer of 50 mM triethylamine, 150 mM NaCl, 1% beta octylglucoside)
Assay: LFA-1/Biotin-sICAM-1 AlphaScreen assay: inhibition of LFA-1 binding to ICAM-1
Conditions: 37° C. 90 minutes, highest compound concentration 1 μM
Text: Assay to Determine Inhibition of LFA-1 Binding to ICAM-1
This assay protocol is designed to study the direct antagonism, by a test compound, of the interaction of ICAM-1 with the Leukointegrin CD18/CD11a (LFA-1).
The LFA-1/Biotin-sICAM-1 molecular assay measures the ability of test compounds to inhibit binding of LFA-1 to Biotinylated-sICAM using AlphaScreen technology (Ref: Wilson, J, Rossi, C P, Carboni, S, Fremaux, C, Perrin, D, Soto, C, Kosco-Vilbois, M, and Scheer, A: A Homogeneous 384-Well High-Throughput Binding Assay for a TNF Receptor Using Alphascreen Technology. J Biomol Screen 2003; 8:522-532) that uses TS2/4(anti-LFA-1)-custom conjugated AlphaLisa acceptor beads and streptavidin-coated donor beads from PerkinElmer. The assay was performed in white OptiPlates-384 in a volume of 60 μL using assay buffer (Dulbecco's PBS containing calcium and magnesium, 2 mM MgCl2, 0.1 mM PMSF, 0.1% BSA, pH 7.1). To each well, Biotin-sICAM was added followed by purified LFA-1 (in buffer of 50 mM triethylamine, 150 mM NaCl, 1% beta octylglucoside, 2 mM MgCl2 neutralized to pH with 1M Tris-HCl, pH 7.5). For compound testing, compound was added in 5 uL to the above in 25 uL. LFA-1 and Biotin-sICAM-1 were used at concentrations that would yield a signal to background ratio of 8-10. The highest concentration of compound was 1 μM in 1% DMSO. Positive controls were wells without compound containing LFA-1, while blanks were wells without both compound and LFA-1. Plates were mixed and incubated at 37° C. for 90 minutes. This was followed by addition of 15 μL/well TS2/4-conjugated acceptor beads diluted in PBS containing 0.1% BSA for a final concentration of 10 μg/mL. The plates were mixed and incubated in the dark for 30 minutes at room temperature followed by addition of 15 μL/well streptavidin-coated donor beads diluted in PBS containing 0.1% BSA at a final concentration of 15 μg/mL. The plates were mixed and incubated in the dark for 60 minutes at room temperature and then read on an EnVision Multilabel Reader using AlphaScreen 384-well OptiPlate protocol.

T1 sequence (P20701 26-1170): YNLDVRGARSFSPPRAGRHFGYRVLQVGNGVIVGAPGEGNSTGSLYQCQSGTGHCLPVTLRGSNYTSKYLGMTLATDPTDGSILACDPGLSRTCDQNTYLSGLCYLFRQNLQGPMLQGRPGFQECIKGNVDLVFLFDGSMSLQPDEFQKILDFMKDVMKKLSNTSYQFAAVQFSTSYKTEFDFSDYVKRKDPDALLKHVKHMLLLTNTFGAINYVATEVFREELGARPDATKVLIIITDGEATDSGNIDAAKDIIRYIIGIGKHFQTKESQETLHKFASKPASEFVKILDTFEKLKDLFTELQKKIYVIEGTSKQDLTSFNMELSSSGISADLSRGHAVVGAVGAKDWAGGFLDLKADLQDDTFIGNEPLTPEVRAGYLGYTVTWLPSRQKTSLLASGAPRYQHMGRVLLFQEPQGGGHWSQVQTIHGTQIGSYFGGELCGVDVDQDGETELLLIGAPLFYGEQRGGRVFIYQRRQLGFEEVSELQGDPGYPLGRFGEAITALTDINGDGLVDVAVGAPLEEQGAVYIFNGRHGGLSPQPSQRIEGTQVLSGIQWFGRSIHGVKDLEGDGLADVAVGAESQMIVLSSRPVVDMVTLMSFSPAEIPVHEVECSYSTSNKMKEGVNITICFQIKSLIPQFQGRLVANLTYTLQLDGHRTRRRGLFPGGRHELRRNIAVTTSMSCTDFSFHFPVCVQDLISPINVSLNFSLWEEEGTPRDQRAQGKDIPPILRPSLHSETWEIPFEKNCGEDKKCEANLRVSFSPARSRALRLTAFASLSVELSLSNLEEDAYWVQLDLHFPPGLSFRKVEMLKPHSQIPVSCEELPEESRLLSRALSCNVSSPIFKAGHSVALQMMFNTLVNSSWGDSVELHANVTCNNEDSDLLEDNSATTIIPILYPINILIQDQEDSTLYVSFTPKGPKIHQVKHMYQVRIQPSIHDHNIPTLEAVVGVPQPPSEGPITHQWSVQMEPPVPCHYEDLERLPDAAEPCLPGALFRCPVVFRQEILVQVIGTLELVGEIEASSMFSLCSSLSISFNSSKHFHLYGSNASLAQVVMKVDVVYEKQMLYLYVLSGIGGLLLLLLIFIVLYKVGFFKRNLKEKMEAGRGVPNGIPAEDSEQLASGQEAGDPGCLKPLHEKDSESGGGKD
T1 sequence (P05107 23-769 partner): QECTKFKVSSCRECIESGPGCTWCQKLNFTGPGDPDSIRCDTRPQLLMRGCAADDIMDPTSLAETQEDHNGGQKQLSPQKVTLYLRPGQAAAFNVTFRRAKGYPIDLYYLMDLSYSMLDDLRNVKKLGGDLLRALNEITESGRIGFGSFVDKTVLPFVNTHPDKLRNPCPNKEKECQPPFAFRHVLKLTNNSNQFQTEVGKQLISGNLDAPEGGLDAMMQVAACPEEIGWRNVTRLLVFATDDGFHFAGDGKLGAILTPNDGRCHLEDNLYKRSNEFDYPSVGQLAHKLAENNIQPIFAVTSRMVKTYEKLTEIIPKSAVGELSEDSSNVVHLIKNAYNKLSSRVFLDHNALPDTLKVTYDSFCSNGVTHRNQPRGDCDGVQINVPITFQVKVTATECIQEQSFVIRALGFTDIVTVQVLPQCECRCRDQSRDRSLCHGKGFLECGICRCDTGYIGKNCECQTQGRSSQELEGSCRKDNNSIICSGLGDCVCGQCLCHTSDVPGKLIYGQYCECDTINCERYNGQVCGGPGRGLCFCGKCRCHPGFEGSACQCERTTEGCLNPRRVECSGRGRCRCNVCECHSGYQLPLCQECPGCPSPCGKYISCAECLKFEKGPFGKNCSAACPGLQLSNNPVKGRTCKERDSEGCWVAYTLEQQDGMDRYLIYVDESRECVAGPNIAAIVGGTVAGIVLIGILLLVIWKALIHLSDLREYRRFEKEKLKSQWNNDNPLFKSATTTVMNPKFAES

SMILES | IC50 [nM]
C[C@@]1(Cc2ccc(C#N)cc2)C(=O)N(c2cc(Cl)c(F)c(Cl)c2)c2ncc(C(=O)NC3(C(=O)NC4(c5ncc(-c6ccc(CO)cc6)cn5)CC4)CC3)n21 [Compound 32] | 1.4
Cc1nn(C)cc1-c1ccc(C2(NC(=O)C3(NC(=O)c4cnc5n4[C@](C)(Cc4ccc(OC(F)(F)F)cc4)C(=O)N5c4cc(Cl)c(F)c(Cl)c4)CC3)CC2)cn1 [Compound 150] | 0.68
Cn1cc(-c2ccc(C3(NC(=O)C4(NC(=O)c5cnc6n5[C@](C)(Cc5ccc(C#N)cc5)C(=O)N6c5cc(Cl)cc(Cl)c5)CC4)CC3)nc2)cn1 [Compound 149] | 0.33
C[C@@]1(Cc2ccc(C#N)cc2)C(=O)N(c2cc(Cl)c(F)c(Cl)c2)c2ncc(C(=O)NC3(C(=O)NC4(c5ncc(-c6ccc(O)cc6)cn5)CC4)CC3)n21 [Compound 34] | 1
Cc1ccc(-c2ccc(C3(NC(=O)C4(NC(=O)c5cnc6n5[C@](C)(Cc5ccc(C#N)cc5)C(=O)N6c5cc(Cl)cc(Cl)c5)CC4)CC3)nc2)cn1 [Compound 62] | 1.1
CC1(Cc2ccc(C#N)cc2)C(=O)N(c2cc(Cl)c(F)c(Cl)c2)c2ncc(C(=O)NC3(C(=O)NC4(c5ccc(-c6cnn(C7CC7)c6)cn5)CC4)CC3)n21 (stereo not drawn) [Compound 38] | 1.7
C[C@H](NC(=O)c1cnc2n1[C@](C)(Cc1ccc(C#N)cc1)C(=O)N2c1cc(Cl)c(F)c(Cl)c1)C(=O)NC1(c2ccc(-c3cn[nH]c3)cn2)CC1 [Compound 93] | 0.7
C[C@@]1(Cc2ccc(C#N)cc2)C(=O)N(c2cc(Cl)cc(Cl)c2)c2ncc(C(=O)NC3(C(=O)NC4(c5ccc(-c6cnc7[nH]ccc7c6)cn5)CC4)CC3)n21 [Compound 146] | 1.6
Cc1nn(C)c(C)c1-c1ccc(C2(NC(=O)C3(NC(=O)c4cnc5n4[C@](C)(Cc4ccc(C#N)cc4)C(=O)N5c4cc(Cl)c(F)c(Cl)c4)CC3)CC2)nc1 [Compound 101] | 1.1
C[C@@]1(Cc2ccc(C#N)cc2)C(=O)N(c2cc(Cl)cc(Cl)c2)c2ncc(C(=O)NC3(C(=O)NC4(c5ccc(-c6cccc(S(C)(=O)=O)c6)cn5)CC4)CC3)n21 [Compound 141] | 0.53
C[C@@]1(Cc2ccc(C#N)cc2)C(=O)N(c2cc(Cl)cc(Cl)c2)c2ncc(C(=O)NC3(C(=O)NC4(c5ccc(-c6ccc(Cl)nc6)cn5)CC4)CC3)n21 [Compound 61] | 1
Cc1nn(C)cc1-c1ccc(C(C)NC(=O)C(NC(=O)c2cnc3n2C(C)(Cc2ccc(C#N)cc2)C(=O)N3c2cc(Cl)c(F)c(Cl)c2)C(C)O)nc1 (stereo not drawn) [Compound 121] | 1.1
Cn1cc(-c2ccc(C3(NC(=O)C4(NC(=O)c5cnc6n5[C@](C)(Cc5ccc(C#N)cc5)C(=O)N6c5cc(Cl)c(F)c(Cl)c5)CC4)CC3)nn2)cn1 [Compound 35] | 0.48
C[C@@H](NC(=O)[C@@H](NC(=O)c1cnc2n1[C@](C)(Cc1ccc(C#N)cc1)C(=O)N2c1cc(Cl)c(F)c(Cl)c1)[C@@H](C)O)c1ccc(-c2ccc(CO)nc2)cn1 [Compound 119] | 0.85
C[C@@]1(Cc2ccc(C#N)cc2)C(=O)N(c2cc(Cl)c(F)c(Cl)c2)c2ncc(C(=O)NC3(C(=O)NC4(c5ccc(-c6ccc(O)cc6)cn5)CC4)CC3)n21 [Compound 2] | 1.1
C[C@@]1(Cc2ccc(C#N)cc2)C(=O)N(c2cc(Cl)c(F)c(Cl)c2)c2ncc(C(=O)NC3(C(=O)NC4(c5ccc(-c6cccc(C(N)=O)c6)cn5)CC4)CC3)n21 [Compound 70] | 0.8
Cc1cc(-c2ccc(C3(NC(=O)C4(NC(=O)c5cnc6n5[C@](C)(Cc5ccc(C#N)cc5)C(=O)N6c5cc(Cl)cc(Cl)c5)CC4)CC3)nc2)ccn1 [Compound 54] | 0.53
C[C@@]1(Cc2ccc(OC(F)(F)F)cc2)C(=O)N(c2cc(Cl)c(F)c(Cl)c2)c2ncc(C(=O)NC3(C(=O)NC4(c5ccc(-c6ccc(=O)[nH]c6)cn5)CC4)CC3)n21 [Compound 108] | 1.1
Cn1cc(-c2ccc(C3(NC(=O)C4(NC(=O)c5cnc6n5[C@](C)(Cc5ccc(C#N)cc5)C(=O)N6c5cc(Cl)c(F)c(Cl)c5)CC4)CC3)nn2)c(C2CC2)n1 [Compound 15] | 1.6
C[C@@]1(Cc2ccc(C#N)cc2)C(=O)N(c2cc(Cl)cc(Cl)c2)c2ncc(C(=O)NC3(C(=O)NC4(c5ccc(-c6cccc(C(N)=O)c6)cn5)CC4)CC3)n21 [Compound 66] | 1.3

SMILES | IC50 [nM]
C[C@@]1(Cc2ccc(OC(F)(F)F)cc2)C(=O)N(c2cc(Cl)c(F)c(Cl)c2)c2ncc(C(=O)NC3(C(=O)NC4(c5ccc(-c6ccc(N)nc6)cn5)CC4)CC3)n21 [Compound 20] | 1.5
C[C@@]1(Cc2ccc(OC(F)(F)F)cc2)C(=O)N(c2cc(Cl)c(F)c(Cl)c2)c2ncc(C(=O)NC3(C(=O)NC4(c5ncc(-c6ccc(CO)nc6)cn5)CC4)CC3)n21 [Compound 110] | 0.65
C[C@@]1(Cc2ccc(C#N)cc2)C(=O)N(c2cc(Cl)c(F)c(Cl)c2)c2ncc(C(=O)NC3(C(=O)NC4(c5ccc(-c6ccc7nccn7c6)cn5)CC4)CC3)n21 [Compound 16] | 1
Cn1cc(-c2ccc(C3(NC(=O)C4(NC(=O)c5cnc6n5[C@](C)(Cc5ccc(C#N)cc5)C(=O)N6c5cc(Cl)cc(C(F)(F)F)c5)CC4)CC3)nc2)cn1 [Compound 51] | 1.2
C[C@@]1(Cc2ccc(C#N)cc2)C(=O)N(c2cc(Cl)cc(Cl)c2)c2ncc(C(=O)NC3(C(=O)NC4(c5ccc(-c6ccc(CO)cc6)cn5)CC4)CC3)n21 [Compound 136] | 0.56
Cn1cc(-c2cnc(C3(NC(=O)C4(NC(=O)c5cnc6n5[C@](C)(Cc5ccc(OC(F)(F)F)cc5)C(=O)N6c5cc(Cl)c(F)c(Cl)c5)CC4)CC3)nc2)cn1 [Compound 40, (R)-7-(3,5-Dichloro-4-fluoro-phenyl)-5-methyl-6-oxo-5-(4-trifluoromethoxy-benzyl)-6,7-dihydro-5H-imidazo[1,2-a]imidazole-3-carboxylic acid(1-{1-[5-(1-methyl-1H-pyrazol-4-yl)-pyrimidin-2-yl]-cyclopropylcarbamoyl}-cyclopropyl)-amide] | 1.7
Cc1ccc(-c2ccc(C(C)NC(=O)C(NC(=O)c3cnc4n3C(C)(Cc3ccc(C#N)cc3)C(=O)N4c3cc(Cl)c(F)c(Cl)c3)C(C)O)nc2)cn1 (stereo not drawn) [Compound 30] | 0.61
C[C@@]1(Cc2ccc(C#N)cc2)C(=O)N(c2cc(Cl)c(F)c(Cl)c2)c2ncc(C(=O)NC3(C(=O)NC4(c5ccc6cc(-c7cn[nH]c7)cnc6n5)CCC4)CC3)n21 [Compound 10] | 1
C[C@@]1(Cc2ccc(C#N)cc2)C(=O)N(c2cc(Cl)cc(Cl)c2)c2ncc(C(=O)NC3(C(=O)NC4(c5ccc(-c6ccc(F)nc6)cn5)CC4)CC3)n21 [Compound 58] | 0.71
C[C@@]1(Cc2ccc(C#N)cc2)C(=O)N(c2cc(Cl)c(F)c(Cl)c2)c2ncc(C(=O)NC3(C(=O)NC4(c5ccc(-c6ccc(CO)cc6)cn5)CC4)CC3)n21 [Compound 100] | 1.3
C[C@@]1(Cc2ccc(C#N)cc2)C(=O)N(c2cc(Cl)cc(Cl)c2)c2ncc(C(=O)NC3(C(=O)NC4(c5ccc(-c6ccc(C(N)=O)cc6)cn5)CC4)CC3)n21 [Compound 131] | 0.99
C[C@@]1(Cc2ccc(C#N)cc2)C(=O)N(c2cc(Cl)c(F)c(Cl)c2)c2ncc(C(=O)NC3(C(=O)NC4(c5ccc(-c6ccncc6)cn5)CC4)CC3)n21 [Compound 68] | 0.6
C[C@@]1(Cc2ccc(C#N)cc2)C(=O)N(c2cc(Cl)c(F)c(Cl)c2)c2ncc(C(=O)NC3(C(=O)NC4(c5ccc(-c6cn[nH]c6)cn5)CC4)CC3)n21 [Compound 11] | 1.2
C[C@@]1(Cc2ccc(C#N)cc2)C(=O)N(c2cc(Cl)c(F)c(Cl)c2)c2ncc(C(=O)NC3(C(=O)NC4(c5ccc(-c6ccc(S(C)(=O)=O)cc6)cn5)CC4)CC3)n21 [Compound 158] | 1.3
Cc1ccc(-c2cnc(C3(NC(=O)C4(NC(=O)c5cnc6n5[C@](C)(Cc5ccc(C#N)cc5)C(=O)N6c5cc(Cl)c(F)c(Cl)c5)CC4)CC3)nc2)cn1 [Compound 112] | 0.54
C[C@@H](NC(=O)C1(NC(=O)c2cnc3n2[C@](C)(Cc2ccc(C#N)cc2)C(=O)N3c2cc(Cl)c(F)c(Cl)c2)CC1)c1ccc(-c2ccc(CO)nc2)nc1 [Compound 160] | 0.59
CC1(Cc2ccc(C#N)cc2)C(=O)N(c2cc(Cl)cc(Cl)c2)c2ncc(C(=O)NC3(C(=O)NC4(c5ccc(-c6cnoc6)cn5)CC4)CC3)n21 (stereo not drawn) [Compound 127] | 0.34
Cc1n[nH]c(C)c1-c1ccc(C2(NC(=O)C3(NC(=O)c4cnc5n4[C@](C)(Cc4ccc(C#N)cc4)C(=O)N5c4cc(Cl)cc(Cl)c4)CC3)CC2)nc1 [Compound 60] | 0.96
C[C@@]1(Cc2ccc(C#N)cc2)C(=O)N(c2cc(Cl)cc(Cl)c2)c2ncc(C(=O)NC3(C(=O)NC4(c5ccc(-c6cccc(O)c6)cn5)CC4)CC3)n21 [Compound 142] | 1.7
